Test results published in patent US11186589B2, “Cyanoindoline derivatives as NIK inhibitors” (Janssen Pharmaceutica NV, priority 2016, dated 2021).
Read-outs that look alike come from different tables or passages of the source.

Tests used:
[1] = target: NIK/MAP3K14 (Homo sapiens (Human), UniProt Q99558); assay: Inhibition of auto-phosphorylation of recombinant human NF-kappaB-inducing kinase (NIK/MAP3K14) activity (AlphaScreen); type: biochemical; conditions: averaged values over all measurements on all batches, 25 microM ATP
Experimental: Inhibition of Auto-Phosphorylation of Recombinant Human NF-kappaB-Inducing Kinase ([…]) Activity (AlphaScreen®)
NIK/MAP3K14 auto-phosphorylation activity was measured using the AlphaScreen® (αscreen) format (Perkin Elmer). All compounds tested were dissolved in dimethyl sulfoxide (DMSO) and further dilutions were made in assay buffer. Final DMSO concentration was […] in assays. Assay buffer was 50 mM Tris pH 7.5 containing 1 mM EGTA (ethylene glycol tetraacetic acid), 1 mM DTT (dithiothreitol), 0.1 mM Na3VO4, 5 mM MgCl2, 0.01% Tween® 20. Assays were carried out in 384 well Alphaplates (Perkin Elmer). Incubations consisted of compound, 25 microM Adenosine-5′-triphosphate (ATP), and 0.2 nM NIK/MAP3K14. Incubations were initiated by addition of GST-tagged NIK/MAP3K14 enzyme, carried out for 1 h at 25° C. and terminated by addition of stop buffer containing anti-phospho-[…] Ser176/180 antibody. Protein A Acceptor and Glutathione-Donor beads were added before reading using an EnVision® Multilabel Plate Reader (Perkin Elmer). Signal obtained in the wells containing blank samples was subtracted from all other wells and IC50's were determined by fitting a sigmoidal curve to % inhibition of control versus Log10 compound concentration.

[2] = system: P-IKKα levels in L363 cells; assay: Effect of compounds on P-IKKα levels in L363 (NIK translocated multiple myeloma) cells; type: cell-based, human; conditions: 2 hr treatment, averaged values, read-out: Inhibition of pIKKα_L-363 (IC50 (nM))
Experimental: Effect of Compounds on P-IKKα Levels in L363 (NIK Translocated Multiple Myeloma) Cells
All compounds tested were dissolved in DMSO and further dilutions were made in culture medium. Final DMSO concentration was 1% (v/v) in cell assays. The human L363 cells (ATCC) were cultured in RPMI 1640 medium supplemented with GlutaMax and 10% fetal calf serum (PAA). Cells were routinely maintained at densities of 0.2×10^6 cells per ml—1×10^6 cells per ml at 37° C. in a humidified 5% CO2 atmosphere. Cells were passaged twice a week splitting back to obtain the low density. Cells were seeded in 96 well plates (Nunc 167008) at 2×10^6 per ml media in a volume of 75 μl per well plus 25 μl 1 μg/ml recombinant human B-cell activating factor (BAFF/BLyS/TNFSF13B). Seeded cells were incubated at 37° C. in a humidified 5% CO2 atmosphere for 24 hr. Drugs and/or solvents were added (20 μl) to a final volume of 120 μl. Following 2 hr treatment plates were removed from the incubator and cell lysis was achieved by the addition of 30 μl 5× lysis buffer followed by shaking on a plate shaker at 4° C. for 10 min. At the end of this incubation lysed cells were centrifuged at 800×g for 20 min at 4° C. and the lysate was assessed for P-IKKα levels by sandwich immuno-assay carried out in anti-rabbit antibody coated Mesoscale plates. Within an experiment, the results for each treatment were the mean of 2 replicate wells. For initial screening purposes, compounds were tested using an 8 point dilution curve (serial 1:3 dilutions). For each experiment, controls (containing MG132 and BAFF but no test drug) and a blank incubation (containing MG132 and BAFF and 10 μM ADS125117, a test concentration known to give full inhibition) were run in parallel. The blank incubation value was subtracted from all control and sample values. To determine the IC50 a sigmoidal curve was fitted to the plot of % inhibition of control P-IKKα levels versus Log10 compound concentration.

[3] = system: JJN-3 cells; assay: Antiproliferative activity on JJN-3 (NIK translocated) multiple myeloma cells (CellTiter-Glo); type: cell-based, human; conditions: JJN-3 (NIK translocated) cells, 96 hr treatment, averaged values, read-out: JJN-3 Proliferation inhibition (IC50 (nM))
Experimental: (§1) Determination of Antiproliferative Activity on JJN-3 (NIK Translocated) and KMS12-BM (NIK WT) Multiple Myeloma Cells
(§2) All compounds tested were dissolved in DMSO and further dilutions were made in culture medium. Final DMSO concentration was 0.3% (v/v) in cell proliferation assays. Viability was assessed using CellTiter-Glo cell viability assay kit (Promega). The human JJN-3 and KMS12-BM cells (DSMZ) were cultured in RPMI 1640 medium supplemented with 2 mM L-glutamine, and 10% fetal calf serum (PAA). Cells were routinely kept as suspension cells at 37° C. in a humidified 5% CO2 atmosphere. Cells were passaged at a seeding density of 0.2×10^6/ml twice a week. Cells were seeded in black tissue culture treated 96-well plates (Perkin Elmer). Densities used for plating ranged from 15000 (JJN3) to 20000 (KMS12BM) cells per well in a total volume of […]. Drugs and/or solvents were added (15 μl) to a final volume of 150 μl. Following 96 hr of treatment, plates were removed from the incubator and allowed to equilibrate to room temperature for approx 10 min. 75 μl CellTiter-Glo reagent was added to each well that was then covered (Perkin Elmer Topseal) and shaken on plate shaker for 10 min. Luminescence was measured on a HTS Topcount (Perkin Elmer). Within an experiment, the results for each treatment were the mean of 2 replicate wells. For initial screening purposes, compounds were tested using a 9 point dilution curve (serial 1:3 dilutions). For each experiment, controls (containing no drug) and a blank incubation (containing cells read at the time of compound addition) were run in parallel. The blank value was subtracted from all control and sample values. For each sample, the mean value for cell growth (in relative light units) was expressed as a percentage of the mean value for cell growth of the control.

[4] = system: KMS12-BM cells; assay: Antiproliferative activity on KMS12-BM (NIK WT) multiple myeloma cells (CellTiter-Glo); type: cell-based, human; conditions: 96 hr treatment, averaged values, read-out: KMS-12 Proliferation inhibition (IC50 (nM))
Experimental: as §1, §2

Chain of NIK/MAP3K14 (Q99558 whole entry): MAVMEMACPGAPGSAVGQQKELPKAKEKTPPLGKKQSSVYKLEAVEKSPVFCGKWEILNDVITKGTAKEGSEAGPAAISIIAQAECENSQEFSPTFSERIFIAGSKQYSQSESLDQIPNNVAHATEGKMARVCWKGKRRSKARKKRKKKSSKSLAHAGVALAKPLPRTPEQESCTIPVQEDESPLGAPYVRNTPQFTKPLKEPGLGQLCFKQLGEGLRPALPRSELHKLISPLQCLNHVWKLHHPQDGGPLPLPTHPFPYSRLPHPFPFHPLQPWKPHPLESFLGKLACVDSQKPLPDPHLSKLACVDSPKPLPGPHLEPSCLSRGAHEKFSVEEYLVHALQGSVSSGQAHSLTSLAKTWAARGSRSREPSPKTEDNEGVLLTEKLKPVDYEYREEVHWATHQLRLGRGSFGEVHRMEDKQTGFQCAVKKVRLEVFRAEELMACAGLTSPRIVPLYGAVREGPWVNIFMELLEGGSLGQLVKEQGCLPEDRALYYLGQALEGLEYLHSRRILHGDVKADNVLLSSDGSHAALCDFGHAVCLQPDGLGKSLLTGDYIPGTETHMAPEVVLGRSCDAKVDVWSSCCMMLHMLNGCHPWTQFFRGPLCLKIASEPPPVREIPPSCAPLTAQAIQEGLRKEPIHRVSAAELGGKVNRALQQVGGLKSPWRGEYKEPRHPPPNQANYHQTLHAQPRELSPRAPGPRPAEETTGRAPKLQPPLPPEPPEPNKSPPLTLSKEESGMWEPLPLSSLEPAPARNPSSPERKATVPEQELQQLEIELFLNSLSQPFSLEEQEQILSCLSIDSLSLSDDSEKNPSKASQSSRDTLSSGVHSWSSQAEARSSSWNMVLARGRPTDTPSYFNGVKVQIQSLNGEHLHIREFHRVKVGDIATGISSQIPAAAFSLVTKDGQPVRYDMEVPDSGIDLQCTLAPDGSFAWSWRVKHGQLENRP

| Structure (SMILES) | IC50 [1] | IC50 ([2]; Homo sapiens, L-363, 2 h) | IC50 ([3]; Homo sapiens, JJN-3, 96 h) | IC50 ([4]; Homo sapiens, KMS-12-BM, 96 h) | IC50 [2] | IC50 [3] | IC50 [4] |
| --- | --- | --- | --- | --- | --- | --- | --- |
| CN1CCc2ccc(Nc3nccc(-c4cc(C#N)c5c(c4)[C@@](C)(CO)CN5)n3)cc2C1 [Compound 31] | 1.4 nM | 2 nM | 4 nM | ~31 nM | – | – | – |
| CC(C)N1CCn2ncc(Nc3nccc(-c4cc(C#N)c5c(c4)[C@@](C)(CO)CN5)n3)c2C1 [Compound 18b] | 6.2 nM | 7 nM | 288 nM | ~5500 nM | – | – | – |
| C[C@]1(CO)CNc2c(C#N)cc(-c3ccnc(Nc4cnn5c4COCC5)n3)cc21 [Compound 12b] | 1.5 nM | 4 nM | 251 nM | ~549 nM | – | – | – |
| CC1CCCn2ncc(Nc3nccc(-c4cc(C#N)c5c(c4)[C@@](C)(CO)CN5)n3)c2O1 (single isomer, unassigned) [Compound 29b] | 3.9 nM | – | – | > 10000 nM | 6 nM | 85 nM | – |
| CC(C)Oc1nc2c(cc1Nc1nccc(-c3cc(C#N)c4c(c3)[C@@](C)(CO)CN4)n1)COCC2 [Compound 46] | 13 nM | 20 nM | 778 nM | > 10000 nM | – | – | – |
| COc1nc2c(cc1Nc1nccc(-c3cc(C#N)c4c(c3)[C@@](C)(CO)CN4)n1)CN(C1CC1)CC2 [Compound 52] | 7.8 nM | 20 nM | 200 nM | > 10000 nM | – | – | – |
| CN1CCn2nc(Nc3nccc(-c4cc(C#N)c5c(c4)[C@@](C)(CO)CN5)n3)cc2C1=O [Compound 13b] | 2 nM | 29 nM | 457 nM | ~1860 nM | – | – | – |
| Cn1c2c(cc(Nc3nccc(-c4cc(C#N)c5c(c4)[C@@](C)(CO)CN5)n3)c1=O)COCC2 [Compound 48] | 1.6 nM | 31 nM | ~2340 nM | > 10000 nM | – | – | – |
| C[C@]1(CO)CNc2c(C#N)cc(-c3ccnc(Nc4cnn5c4OCCC5)n3)cc21 [Compound 14b] | 2 nM | 6 nM | 155 nM | 3980 nM | – | – | – |
| Cc1nc2c(cc1Nc1nccc(-c3cc(C#N)c4c(c3)[C@@](C)(CO)CN4)n1)COCC2 [Compound 28] | 1.1 nM | 14 nM | 851 nM | > 10000 nM | – | – | – |
| CC1CCn2ncc(Nc3nccc(-c4cc(C#N)c5c(c4)[C@@](C)(CO)CN5)n3)c2O1 (single isomer, unassigned) [Compound 1b] | 2.8 nM | 2 nM | 58 nM | – | – | – | ~2820 nM |
| CC1CCCn2ncc(Nc3nccc(-c4cc(C#N)c5c(c4)[C@@](C)(CO)CN5)n3)c2O1 (single isomer, unassigned) [Compound 30b] | 5.2 nM | – | – | – | 13 nM | 263 nM | > 10000 nM |
| CN1CCn2ncc(Nc3nccc(-c4cc(C#N)c5c(c4)[C@@](C)(CO)CN5)n3)c2C1=O [Compound 3b] | 1 nM | 3 nM | 91 nM | > 10000 nM | – | – | – |
| CC(C)N1CCn2ncc(Nc3nccc(-c4cc(C#N)c5c(c4)[C@@](C)(CO)CN5)n3)c2C1=O [Compound 17b] | 3 nM | 3 nM | 309 nM | > 10000 nM | – | – | – |
| CC1(CO)CNc2c(C#N)cc(-c3ccnc(Nc4cc(Cl)cc5c4OCC5)n3)cc21 (stereo not shown) [Compound 41] | 11.8 nM | 3 nM | 138 nM | > 10000 nM | – | – | – |
| CC1(C)CCOc2c(Nc3nccc(-c4cc(C#N)c5c(c4)[C@@](C)(CO)CN5)n3)cnn21 [Compound 24b] | 4.9 nM | 28 nM | 676 nM | ~5890 nM | – | – | – |
| CC1(C)CCn2ncc(Nc3nccc(-c4cc(C#N)c5c(c4)[C@@](C)(CO)CN5)n3)c2O1 [Compound 25b] | 8.1 nM | 7 nM | 3020 nM | > 10000 nM | – | – | – |
| COc1nc2c(cc1Nc1nccc(-c3cc(C#N)c4c(c3)[C@@](C)(CO)CN4)n1)CN(C)CC2 [Compound 32] | 1.7 nM | 10 nM | 195 nM | 525 nM | – | – | – |
| C[C@]1(CO)CNc2c(C#N)cc(-c3ccnc(Nc4cc5c(n(CCC6CC6)c4=O)CCOC5)n3)cc21 [Compound 58] | 35.5 nM | 204 nM | 2400 nM | > 10000 nM | – | – | – |
| CC1CC(C)n2ncc(Nc3nccc(-c4cc(C#N)c5c(c4)C(C)(CO)CN5)n3)c2O1 (racemic) [Compound 21b] | 5.9 nM | – | 269 nM | 2510 nM | 5 nM | – | – |
| CC(C)C1CCn2ncc(Nc3nccc(-c4cc(C#N)c5c(c4)[C@@](C)(CO)CN5)n3)c2O1 (single isomer, unassigned) [Compound 22b] | 7.1 nM | 3 nM | – | – | – | 166 nM | > 10000 nM |
| COc1cc2c(cc1Nc1nccc(-c3cc(C#N)c4c(c3)[C@@](C)(CO)CN4)n1)CCN(C)CC2 [Compound 24] | 3 nM | ~74 nM | ~214 nM | ~288 nM | – | – | – |
